According to ChEMBL document CHEMBL5154747, “Discovery of new carbonic anhydrase IX inhibitors as anticancer agents by toning the hydrophobic and hydrophilic rims of the active site to encounter the dual-tail approach” (Eur J Med Chem, 2022):

Legend:
[1] = tested on: UO-31; assay: Anticancer activity against human UO-31 cells assessed as cell growth inhibition at 10 uM incubated for 48 hrs by SRB assay relative to control; type: functional; details: read-out: GI
[2] = tested on: UACC-257; assay: Anticancer activity against human UACC-257 cells assessed as cell growth inhibition at 10 uM incubated for 48 hrs by SRB assay relative to control; type: functional; details: read-out: GI
[3] = molecular target: Carbonic anhydrase 9 (Homo sapiens, UniProt Q16790); assay: Inhibition of recombinant human CA 9 preincubated for 15 mins by phenol red dye based stopped flow CO2 hydration assay
[4] = tested on: A549; assay: Anticancer activity against human A549 cells assessed as cell growth inhibition at 10 uM incubated for 48 hrs by SRB assay relative to control; type: functional; details: read-out: GI
[5] = tested on: NCI-H460; assay: Anticancer activity against human NCI-H460 cells assessed as cell growth inhibition at 10 uM incubated for 48 hrs by SRB assay relative to control; type: functional; details: read-out: GI
[6] = tested on: HL-60(TB); assay: Anticancer activity against human HL-60(TB) cells assessed as cell growth inhibition at 10 uM incubated for 48 hrs by SRB assay relative to control; type: functional; details: read-out: GI
[7] = tested on: HOP-62; assay: Anticancer activity against human HOP-62 cells assessed as cell growth inhibition at 10 uM incubated for 48 hrs by SRB assay relative to control; type: functional; details: read-out: GI
[8] = tested on: MCF7; assay: Anticancer activity against human MCF7 cells assessed as cell growth inhibition at 10 uM incubated for 48 hrs by SRB assay relative to control; type: functional; details: read-out: GI
[9] = tested on: SN12C; assay: Anticancer activity against human SN12C cells assessed as cell growth inhibition at 10 uM incubated for 48 hrs by SRB assay relative to control; type: functional; details: read-out: GI
[10] = tested on: 786-0; assay: Anticancer activity against human 786-0 cells assessed as cell growth inhibition at 10 uM incubated for 48 hrs by SRB assay relative to control; type: functional; details: read-out: GI
[11] = tested on: PC-3; assay: Anticancer activity against human PC-3 cells assessed as cell growth inhibition at 10 uM incubated for 48 hrs by SRB assay relative to control; type: functional; details: read-out: GI
[12] = tested on: MDA-MB-231; assay: Anticancer activity against human MDA-MB-231 cells assessed as cell growth inhibition at 10 uM incubated for 48 hrs by SRB assay relative to control; type: functional; details: read-out: GI
[13] = tested on: OVCAR-8; assay: Anticancer activity against human OVCAR-8 cells assessed as cell growth inhibition at 10 uM incubated for 48 hrs by SRB assay relative to control; type: functional; details: read-out: GI
[14] = tested on: KM12; assay: Anticancer activity against human KM12 cells assessed as cell growth inhibition at 10 uM incubated for 48 hrs by SRB assay relative to control; type: functional; details: read-out: GI
[15] = tested on: HCT-116; assay: Anticancer activity against human HCT-116 cells assessed as cell growth inhibition at 10 uM incubated for 48 hrs by SRB assay relative to control; type: functional; details: read-out: GI
[16] = tested on: ACHN; assay: Anticancer activity against human ACHN cells assessed as cell growth inhibition at 10 uM incubated for 48 hrs by SRB assay relative to control; type: functional; details: read-out: GI
[17] = tested on: OVCAR-3; assay: Anticancer activity against human OVCAR-3 cells assessed as cell growth inhibition at 10 uM incubated for 48 hrs by SRB assay relative to control; type: functional; details: read-out: GI
[18] = tested on: SK-MEL-5; assay: Anticancer activity against human SK-MEL-5 cells assessed as cell growth inhibition at 10 uM incubated for 48 hrs by SRB assay relative to control; type: functional; details: read-out: GI
[19] = tested on: COLO 205; assay: Anticancer activity against human COLO 205 cells assessed as cell growth inhibition at 10 uM incubated for 48 hrs by SRB assay relative to control; type: functional; details: read-out: GI
[20] = tested on: BT-549; assay: Anticancer activity against human BT-549 cells assessed as cell growth inhibition at 10 uM incubated for 48 hrs by SRB assay relative to control; type: functional; details: read-out: GI
[21] = tested on: NCI/ADR-RES; assay: Anticancer activity against human NCI/ADR-RES cells assessed as cell growth inhibition at 10 uM incubated for 48 hrs by SRB assay relative to control; type: functional; details: read-out: GI
[22] = tested on: UACC-62; assay: Anticancer activity against human UACC-62 cells assessed as cell growth inhibition at 10 uM incubated for 48 hrs by SRB assay relative to control; type: functional; details: read-out: GI
[23] = tested on: RPMI-8226; assay: Anticancer activity against human RPMI-8226 cells assessed as cell growth inhibition at 10 uM incubated for 48 hrs by SRB assay relative to control; type: functional; details: read-out: GI
[24] = tested on: OVCAR-5; assay: Anticancer activity against human OVCAR-5 cells assessed as cell growth inhibition at 10 uM incubated for 48 hrs by SRB assay relative to control; type: functional; details: read-out: GI
[25] = tested on: EKVX; assay: Anticancer activity against human EKVX cells assessed as cell growth inhibition at 10 uM incubated for 48 hrs by SRB assay relative to control; type: functional; details: read-out: GI
[26] = tested on: HCC 2998; assay: Anticancer activity against human HCC 2998 cells assessed as cell growth inhibition at 10 uM incubated for 48 hrs by SRB assay relative to control; type: functional; details: read-out: GI
[27] = tested on: MOLT-4; assay: Anticancer activity against human MOLT-4 cells assessed as cell growth inhibition at 10 uM incubated for 48 hrs by SRB assay relative to control; type: functional; details: read-out: GI
[28] = tested on: SK-MEL-2; assay: Anticancer activity against human SK-MEL-2 cells assessed as cell growth inhibition at 10 uM incubated for 48 hrs by SRB assay relative to control; type: functional; details: read-out: GI
[29] = tested on: Hs-578T; assay: Anticancer activity against human Hs-578T cells assessed as cell growth inhibition at 10 uM incubated for 48 hrs by SRB assay relative to control; type: functional; details: read-out: GI
[30] = tested on: SF-268; assay: Anticancer activity against human SF-268 cells assessed as cell growth inhibition at 10 uM incubated for 48 hrs by SRB assay relative to control; type: functional; details: read-out: GI
[31] = tested on: U-251; assay: Anticancer activity against human U-251 cells assessed as cell growth inhibition at 10 uM incubated for 48 hrs by SRB assay relative to control; type: functional; details: read-out: GI
[32] = tested on: TK-10; assay: Anticancer activity against human TK-10 cells assessed as cell growth inhibition at 10 uM incubated for 48 hrs by SRB assay relative to control; type: functional; details: read-out: GI
[33] = tested on: MDA-MB-468; assay: Anticancer activity against human MDA-MB-468 cells assessed as cell growth inhibition at 10 uM incubated for 48 hrs by SRB assay relative to control; type: functional; details: read-out: GI
[34] = tested on: Malme-3M; assay: Anticancer activity against human Malme-3M cells assessed as cell growth inhibition at 10 uM incubated for 48 hrs by SRB assay relative to control; type: functional; details: read-out: GI
[35] = tested on: MDA-MB-435; assay: Anticancer activity against human MDA-MB-435 cells assessed as cell growth inhibition at 10 uM incubated for 48 hrs by SRB assay relative to control; type: functional; details: read-out: GI
[36] = tested on: SNB-19; assay: Anticancer activity against human SNB-19 cells assessed as cell growth inhibition at 10 uM incubated for 48 hrs by SRB assay relative to control; type: functional; details: read-out: GI
[37] = tested on: T47D; assay: Anticancer activity against human T47D cells assessed as cell growth inhibition at 10 uM incubated for 48 hrs by SRB assay relative to control; type: functional; details: read-out: GI
[38] = tested on: IGROV-1; assay: Anticancer activity against human IGROV-1 cells assessed as cell growth inhibition at 10 uM incubated for 48 hrs by SRB assay relative to control; type: functional; details: read-out: GI
[39] = tested on: NCI-H226; assay: Anticancer activity against human NCI-H226 cells assessed as cell growth inhibition at 10 uM incubated for 48 hrs by SRB assay relative to control; type: functional; details: read-out: GI
[40] = tested on: SR; assay: Anticancer activity against human SR cells assessed as cell growth inhibition at 10 uM incubated for 48 hrs by SRB assay relative to control; type: functional; details: read-out: GI

SMILES | inhibition of growth at 10 µM [1] [%] | inhibition of growth at 10 µM [2] [%] | Ki [3] [nM] | inhibition of growth at 10 µM [4] [%] | inhibition of growth at 10 µM [5] [%] | inhibition of growth at 10 µM [6] [%] | inhibition of growth at 10 µM [7] [%] | inhibition of growth at 10 µM [8] [%] | inhibition of growth at 10 µM [9] [%] | inhibition of growth at 10 µM [10] [%] | inhibition of growth at 10 µM [11] [%] | inhibition of growth at 10 µM [12] [%] | inhibition of growth at 10 µM [13] [%] | inhibition of growth at 10 µM [14] [%] | inhibition of growth at 10 µM [15] [%] | inhibition of growth at 10 µM [16] [%] | inhibition of growth at 10 µM [17] [%] | inhibition of growth at 10 µM [18] [%] | inhibition of growth at 10 µM [19] [%] | inhibition of growth at 10 µM [20] [%] | also measured
NS(=O)(=O)c1ccc(Nc2nc(N/N=C/c3ccc(F)cc3)nc(Nc3ccccc3)n2)cc1 | 33 | 52 | 61.3 | 92 | 34 | 39 | 82 | 71 | 49 | 41 | 60 | 38 | 70 | 69 | 55 | 19 | 69 | 61 | 79 | 32 | inhibition of growth at 10 µM [21]: < 10%; inhibition of growth at 10 µM [22]: 39%; inhibition of growth at 10 µM [23]: 49%; inhibition of growth at 10 µM [24]: 24%; inhibition of growth at 10 µM [25]: 37%; inhibition of growth at 10 µM [26]: 44%; inhibition of growth at 10 µM [27]: 78%; inhibition of growth at 10 µM [28]: 109%; inhibition of growth at 10 µM [29]: 59%; inhibition of growth at 10 µM [30]: 58%; inhibition of growth at 10 µM [31]: 88%; inhibition of growth at 10 µM [32]: 98%; inhibition of growth at 10 µM [33]: 45%; inhibition of growth at 10 µM [34]: 42%; inhibition of growth at 10 µM [35]: 46%; inhibition of growth at 10 µM [36]: 30%; inhibition of growth at 10 µM [37]: 79%; inhibition of growth at 10 µM [38]: 56%; inhibition of growth at 10 µM [39]: 49%; inhibition of growth at 10 µM [40]: 42%
COc1ccc(/C=N/Nc2nc(Nc3ccccc3)nc(Nc3ccc(S(N)(=O)=O)cc3)n2)cc1 | 22 | < 10 | 99.4 | 12 | 44 | 16 | 19 | 59 | 19 | 26 | 24 | 32 | 32 | 25 | 49 | 24 | 38 | 25 | 23 | 14 | inhibition of growth at 10 µM [21]: < 10%; inhibition of growth at 10 µM [22]: 12%; inhibition of growth at 10 µM [23]: 52%; inhibition of growth at 10 µM [24]: 14%; inhibition of growth at 10 µM [25]: 11%; inhibition of growth at 10 µM [26]: 12%; inhibition of growth at 10 µM [27]: 55%; inhibition of growth at 10 µM [28]: 31%; inhibition of growth at 10 µM [29]: 41%; inhibition of growth at 10 µM [30]: < 10%; inhibition of growth at 10 µM [31]: 33%; inhibition of growth at 10 µM [32]: 20%; inhibition of growth at 10 µM [33]: 23%; inhibition of growth at 10 µM [34]: 18%; inhibition of growth at 10 µM [35]: 23%; inhibition of growth at 10 µM [36]: 13%; inhibition of growth at 10 µM [37]: 36%; inhibition of growth at 10 µM [38]: 41%; inhibition of growth at 10 µM [39]: 26%; inhibition of growth at 10 µM [40]: 51%
NS(=O)(=O)c1ccc(Nc2nc(N/N=C/c3ccccc3)nc(Nc3ccccc3)n2)cc1 | 34 | < 10 | 30.3 | 28 | 31 | 40 | < 10 | 46 | 20 | 33 | 31 | 16 | 20 | 26 | 27 | 17 | 29 | 35 | 14 | < 10 | inhibition of growth at 10 µM [21]: < 10%; inhibition of growth at 10 µM [22]: 31%; inhibition of growth at 10 µM [23]: 41%; inhibition of growth at 10 µM [24]: < 10%; inhibition of growth at 10 µM [25]: 29%; inhibition of growth at 10 µM [26]: 21%; inhibition of growth at 10 µM [27]: 58%; inhibition of growth at 10 µM [28]: 10%; inhibition of growth at 10 µM [29]: 43%; inhibition of growth at 10 µM [30]: 19%; inhibition of growth at 10 µM [31]: 14%; inhibition of growth at 10 µM [32]: < 10%; inhibition of growth at 10 µM [33]: 19%; inhibition of growth at 10 µM [34]: 22%; inhibition of growth at 10 µM [35]: 26%; inhibition of growth at 10 µM [36]: < 10%; inhibition of growth at 10 µM [37]: 37%; inhibition of growth at 10 µM [38]: 38%; inhibition of growth at 10 µM [39]: 22%; inhibition of growth at 10 µM [40]: 25%
